This note sets out measurements from patent US10538555B2, “Macrocyclic inhibitors of the PD-1/PD-L1 and CD80(B7-1)/PD-L1 protein/protein interactions” (BRISTOL-MYERS SQUIBB COMPANY, priority 2014, dated 2020).

Each structure is given as a SMILES string. *1 amine or outer side, *2 acyl side, *3 side chain or, on linkers, in order; H or OH if unused. Where a SMILES comes first, the peptide text is derived from it. Bridges are numbered along the chain shown (N, C = ends). [ ]: non-standard residue; d: D form. ξ: configuration not given here. Trp(1-CH2COOH) = N[C@@H](Cc1cn(CC(=O)O)c2ccccc12)C(=O)O; Phe(3,4,5-F3) = N[C@@H](Cc1cc(F)c(F)c(F)c1)C(=O)O; Phe(4-F) = N[C@@H](Cc1ccc(F)cc1)C(=O)O; d(cisHyp) = O=C(O)[C@H]1C[C@@H](O)CN1; Bta = N[C@@H](Cc1csc2ccccc12)C(=O)O; NMeY = CN[C@@H](Cc1ccc(O)cc1)C(=O)O; Hyp = O=C(O)[C@@H]1C[C@@H](O)CN1; NMeF = CN[C@@H](Cc1ccccc1)C(=O)O; X1 = O=C([C@H]1COCCN1[*:1])[*:2]; dHyp = O=C(O)[C@H]1C[C@H](O)CN1; NMehSer = CN[C@@H](CCO)C(=O)O; NMeNle = CCCC[C@H](NC)C(=O)O; dPip = O=C(O)[C@H]1CCCCN1; hSer = N[C@@H](CCO)C(=O)O; NMeA = CN[C@@H](C)C(=O)O; Orn = NCCC[C@H](N)C(=O)O; Dab = NCC[C@H](N)C(=O)O; Dap = NC[C@H](N)C(=O)O; ξC = NC(CS)C(=O)O; Sar = CNCC(=O)O

For this assay, the target named is T1, Human PD-L1/PD-1 (Homo sapiens, UniProt Q9NZQ7).
T1 construct: TVMV protease cleavage site (C); made in house; host or cells: HEK293T cells
T1 sequence (Q9NZQ7 with tags, fused parts or gaps): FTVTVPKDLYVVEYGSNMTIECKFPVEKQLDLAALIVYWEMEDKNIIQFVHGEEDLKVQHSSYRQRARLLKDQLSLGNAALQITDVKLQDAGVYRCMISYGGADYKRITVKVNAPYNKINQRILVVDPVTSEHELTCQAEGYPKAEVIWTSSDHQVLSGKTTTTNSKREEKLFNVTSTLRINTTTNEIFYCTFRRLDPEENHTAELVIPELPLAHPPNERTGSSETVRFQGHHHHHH
The assay can be described thus: HTRF Human PD-L1/PD-1 binding assay (PD-1-Ig/PD-L1-His). As to conditions: PD-L1-His 10 nM, PD-1-Ig 20 nM; class symbol; read-out: HTRF Human PD-L1/PD-1 Binding Assay IC50 Range. The method in brief: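 HTRF competition using HEK293T-expressed human PD-1(25-167)-Ig at 20 nM and PD-L1(18-239)-His at 10 nM, compound incubated first with PD-L1 for 15 min, then with PD-1 for 15 min. Signal read as 665/620 nm ratio 30 min after adding Eu anti-Ig and APC anti-His antibodies.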
`COCC[C@H]1C(=O)N2C[C@@H](O)C[C@@H]2C(=O)N[C@@H](CC(=O)O)C(=O)N[C@@H](C(C)C)C(=O)N(C)[C@@H](Cc2ccccc2)C(=O)N[C@@H](CC(=O)O)C(=O)N2CCOC[C@@H]2C(=O)N[C@@H](Cc2c[nH]c3ccccc23)C(=O)N[C@@H](Cc2ccc(O)cc2)C(=O)N[C@@H](CCCN)C(=O)N[C@H](C(=O)NCC(N)=O)CSCC(=O)N[C@@H](Cc2cc(F)c(F)c(F)c2)C(=O)N(C)[C@@H](Cc2ccccc2)C(=O)N1C` [Example 9269] ({CH2CO}-[Phe(3,4,5-F3)][NMeF][NMehSer](Me)[dHyp]DV[NMeF]D[X1]WY[Orn]CG-NH2; thioether N-13): the IC50 lay in the range of 1 to 9.9 nM.
The result for `CCCC[C@H]1C(=O)N(C)[C@@H](CCCC)C(=O)N[C@@H](CCC(=O)O)C(=O)N[C@H](C(=O)NCC(N)=O)CSCC(=O)N[C@@H](Cc2ccc(O)cc2)C(=O)N(C)[C@@H](C)C(=O)N[C@@H](CC(=O)O)C(=O)N2CCC[C@H]2C(=O)N[C@@H](Cc2cnc[nH]2)C(=O)N[C@@H](CCC(=O)O)C(=O)N2C[C@H](O)C[C@H]2C(=O)N[C@@H](Cc2c[nH]c3ccccc23)C(=O)N[C@@H](CO)C(=O)N[C@@H](Cc2c[nH]c3ccccc23)C(=O)N1C` [Example 5230] ({CH2CO}-Y[NMeA]DPHE[Hyp]WSW[NMeNle][NMeNle]ECG-NH2; thioether N-14) reads 1 to 9.9 nM; that for `CCCC[C@H]1C(=O)N(C)CC(=O)N[C@@H](CC(N)=O)C(=O)N[C@@H](C(C)C)C(=O)N(C)[C@@H](Cc2ccccc2)C(=O)N[C@@H](Cc2ccc(O)cc2)C(=O)N(C)CC(=O)N[C@@H](Cc2c[nH]c3ccccc23)C(=O)N[C@@H](Cc2ccc(O)cc2)C(=O)N[C@@H](CCCN)C(=O)N[C@H](C(=O)NCC(N)=O)CSCC(=O)N[C@@H](Cc2ccccc2)C(=O)N(C)[C@@H](Cc2ccncc2)C(=O)N1C` (single isomer, unassigned) [Example 3638-B], 10 to 99.9 nM; that for `CCCC[C@H]1C(=O)N2CCC[C@@H]2C(=O)N[C@@H](CC(=O)O)C(=O)N[C@@H](C(C)C)C(=O)N(C)[C@@H](Cc2ccccc2)C(=O)N[C@@H](CCC(=O)O)C(=O)N2CCCC[C@@H]2C(=O)N[C@@H](Cc2c[nH]c3ccccc23)C(=O)N[C@@H](Cc2ccc(O)cc2)C(=O)N[C@@H](CCCN)C(=O)N[C@H](C(=O)NCC(N)=O)CSCC(=O)N[C@@H](Cc2cc(F)c(F)c(F)c2)C(=O)N(C)[C@@H](Cc2ccc(O)cc2)C(=O)N1C` [Example 10601] ({CH2CO}-[Phe(3,4,5-F3)][NMeY][NMeNle][dP]DV[NMeF]E[dPip]WY[Orn]CG-NH2; thioether N-13), 1 to 9.9 nM.
With `CCCC[C@H]1C(=O)N2CCC[C@@H]2C(=O)N[C@@H](CC(=O)O)C(=O)N[C@@H](C)C(=O)N(C)[C@@H](Cc2ccccc2)C(=O)N[C@@H](Cc2ccc(O)cc2)C(=O)N(C)CC(=O)N[C@@H](Cc2c[nH]c3ccccc23)C(=O)N[C@@H](Cc2ccc(O)cc2)C(=O)N[C@@H](CC(C)C)C(=O)N[C@H](C(=O)NCC(N)=O)CSCC(=O)N[C@@H](Cc2cc(F)c(F)c(F)c2)C(=O)N(C)[C@@H](Cc2ccccc2)C(=O)N1C` [Example 10053] ({CH2CO}-[Phe(3,4,5-F3)][NMeF][NMeNle][dP]DA[NMeF]Y[Sar]WYLCG-NH2; thioether N-13) the figure was 10 to 99.9 nM.
Consider `CCCC[C@H]1C(=O)N2CCC[C@@H]2C(=O)N[C@@H](CC(=O)O)C(=O)N[C@@H](C(C)C)C(=O)N(C)[C@@H](Cc2ccccc2)C(=O)N[C@@H](CCC(=O)O)C(=O)N2C[C@H](O)C[C@@H]2C(=O)N[C@@H](Cc2c[nH]c3ccccc23)C(=O)N[C@@H](Cc2ccc(O)cc2)C(=O)N[C@@H](CCC(=O)O)C(=O)N[C@H](C(=O)NCC(N)=O)CSCC(=O)N[C@@H](Cc2cc(F)c(F)c(F)c2)C(=O)N(C)[C@@H](Cc2ccc(O)cc2)C(=O)N1C` [Example 10633] ({CH2CO}-[Phe(3,4,5-F3)][NMeY][NMeNle][dP]DV[NMeF]E[d(cisHyp)]WYECG-NH2; thioether N-13), for which the IC50 was 10 to 99.9 nM.
The result for `CCCC[C@H]1C(=O)N(C)[C@@H](CCCC)C(=O)N[C@@H](CCC(=O)O)C(=O)N[C@H](C(=O)NCC(N)=O)CSCC(=O)N[C@@H](Cc2ccc(O)cc2)C(=O)N(C)[C@@H](C)C(=O)N[C@@H](CC(=O)O)C(=O)N2CCC[C@H]2C(=O)N[C@@H](CO)C(=O)N[C@@H](CC(C)C)C(=O)N2C[C@H](O)C[C@H]2C(=O)N[C@@H](Cc2c[nH]c3ccccc23)C(=O)N[C@@H](CCN)C(=O)N[C@@H](Cc2c[nH]c3ccccc23)C(=O)N1C` [Example 5179] ({CH2CO}-Y[NMeA]DPSL[Hyp]W[Dab]W[NMeNle][NMeNle]ECG-NH2; thioether N-14) reads 1 to 9.9 nM; that for `CCCC[C@H]1C(=O)N(C)[C@@H](CCCC)C(=O)N[C@@H](CO)C(=O)NC(C(=O)NCC(N)=O)CSCC(=O)N[C@@H](Cc2ccc(O)cc2)C(=O)N(C)[C@@H](C)C(=O)N[C@@H](CC(N)=O)C(=O)N2CCC[C@H]2C(=O)N[C@@H](CC(N)=O)C(=O)N[C@@H](CC(C)C)C(=O)N2CCC[C@H]2C(=O)N[C@@H](Cc2c[nH]c3ccccc23)C(=O)N[C@@H](CO)C(=O)N[C@@H](Cc2c[nH]c3ccccc23)C(=O)N1C` (stereo partly drawn) [Example 9140] ({CH2CO}-Y[NMeA]NPNLPWSW[NMeNle][NMeNle]S[ξC]G-NH2; thioether N-14), 1 to 9.9 nM; that for `CCCC[C@H]1C(=O)N2CCC[C@@H]2C(=O)N[C@@H](CC(=O)O)C(=O)N[C@@H](C(C)C)C(=O)N(C)[C@@H](Cc2ccccc2)C(=O)N[C@@H](Cc2ccc(O)cc2)C(=O)N2CCC[C@@H]2C(=O)N[C@@H](Cc2c[nH]c3ccccc23)C(=O)N[C@@H](Cc2ccc(O)cc2)C(=O)N[C@@H](CC(=O)O)C(=O)N[C@H](C(=O)NCC(N)=O)CSCC(=O)N[C@@H](Cc2cc(F)c(F)c(F)c2)C(=O)N(C)[C@@H](Cc2ccccc2)C(=O)N1C` [Example 10099] ({CH2CO}-[Phe(3,4,5-F3)][NMeF][NMeNle][dP]DV[NMeF]Y[dP]WYDCG-NH2; thioether N-13), 1 to 9.9 nM.
For `CCCC[C@H]1C(=O)N[C@@H](CCC(N)=O)C(=O)N2CCC[C@@H]2C(=O)N[C@@H](Cc2c[nH]c3ccccc23)C(=O)N[C@@H](Cc2ccc(O)cc2)C(=O)N[C@@H](CCCN)C(=O)N[C@H](C(=O)NCC(N)=O)CSCC(=O)N[C@@H](Cc2ccc(F)cc2)C(=O)N(C)[C@@H](Cc2ccccc2)C(=O)N(C)[C@@H](CCCC)C(=O)N2CCC[C@@H]2C(=O)N[C@@H](CC(=O)O)C(=O)N[C@@H](C(C)C)C(=O)N1C` [Example 9217] ({CH2CO}-[Phe(4-F)][NMeF][NMeNle][dP]DV[NMeNle]Q[dP]WY[Orn]CG-NH2; thioether N-13), the IC50 lay within 100 to 990 nM.
Regarding `CCCC[C@H]1C(=O)N[C@@H](CC(N)=O)C(=O)N2CCC[C@H]2C(=O)N[C@@H](CO)C(=O)N[C@@H](CCO)C(=O)N2C[C@H](O)C[C@H]2C(=O)N[C@@H](Cc2c[nH]c3ccccc23)C(=O)N[C@@H](CN)C(=O)N[C@@H](Cc2c[nH]c3ccccc23)C(=O)N(C)[C@@H](C)C(=O)N(C)[C@@H](C)C(=O)N[C@@H](CCCNC(=N)N)C(=O)NC(C(=O)NCC(N)=O)CSCC(=O)N[C@@H](Cc2ccc(O)cc2)C(=O)N1C` (stereo partly drawn) [Example 10199] ({CH2CO}-Y[NMeNle]NPS[hSer][Hyp]W[Dap]W[NMeA][NMeA]R[ξC]G-NH2; thioether N-14), the IC50 lay in the range of 1000 to 10000 nM.
With `CCCC[C@H]1C(=O)N(C)[C@@H](CCCC)C(=O)N[C@@H](CCCNC(=N)N)C(=O)NC(C(=O)NCC(N)=O)CSCC(=O)N[C@@H](Cc2ccc(O)cc2)C(=O)N(C)[C@@H](C)C(=O)N[C@@H](Cc2cnc[nH]2)C(=O)N2CCC[C@H]2C(=O)N[C@@H](CC(N)=O)C(=O)N[C@@H](CC(C)C)C(=O)N2C[C@H](O)C[C@H]2C(=O)N[C@@H](Cc2c[nH]c3ccccc23)C(=O)N[C@@H](CO)C(=O)N[C@@H](Cc2csc3ccccc23)C(=O)N1C` (stereo partly drawn) [Example 9147] ({CH2CO}-Y[NMeA]HPNL[Hyp]WS[Bta][NMeNle][NMeNle]R[ξC]G-NH2; thioether N-14) the figure was 1 to 9.9 nM; with `CCCC[C@H]1C(=O)N(C)[C@@H](CCCC)C(=O)N[C@@H](CN)C(=O)N[C@H](C(=O)NCC(N)=O)CSCC(=O)N[C@@H](Cc2ccc(O)cc2)C(=O)N(C)[C@@H](C)C(=O)N[C@@H](CC(N)=O)C(=O)N2CCC[C@H]2C(=O)N[C@@H](CN)C(=O)N[C@@H](CCC(=O)O)C(=O)N2C[C@H](O)C[C@H]2C(=O)N[C@@H](Cc2c[nH]c3ccccc23)C(=O)N[C@@H](CO)C(=O)N[C@@H](Cc2cn(CC(=O)O)c3ccccc23)C(=O)N1C` [Example 5231] ({CH2CO}-Y[NMeA]NP[Dap]E[Hyp]WS[Trp(1-CH2COOH)][NMeNle][NMeNle][Dap]CG-NH2; thioether N-14), 1 to 9.9 nM; with `CCCC[C@H]1C(=O)N2C[C@H](O)C[C@@H]2C(=O)N[C@@H](CC(=O)O)C(=O)N[C@@H](C(C)C)C(=O)N(C)[C@@H](Cc2ccccc2)C(=O)N[C@@H](CCC(=O)O)C(=O)N2C[C@H](O)C[C@@H]2C(=O)N[C@@H](Cc2c[nH]c3ccccc23)C(=O)N[C@@H](Cc2ccc(O)cc2)C(=O)N[C@@H](CCC(N)=O)C(=O)N[C@H](C(=O)NCC(N)=O)CSCC(=O)N[C@@H](Cc2cc(F)c(F)c(F)c2)C(=O)N(C)[C@@H](Cc2ccccc2)C(=O)N1C` [Example 9337] ({CH2CO}-[Phe(3,4,5-F3)][NMeF][NMeNle][d(cisHyp)]DV[NMeF]E[d(cisHyp)]WYQCG-NH2; thioether N-13), 10 to 99.9 nM.
Consider `CCCC[C@H]1C(=O)N2C[C@H](O)C[C@@H]2C(=O)N[C@@H](CC(=O)O)C(=O)N[C@@H](C(C)C)C(=O)N(C)[C@@H](Cc2ccccc2)C(=O)N[C@@H](CCC(N)=O)C(=O)N2C[C@H](O)C[C@@H]2C(=O)N[C@@H](Cc2c[nH]c3ccccc23)C(=O)N[C@@H](Cc2ccc(O)cc2)C(=O)N[C@@H](CCCCN)C(=O)N[C@H](C(=O)NCC(N)=O)CSCC(=O)N[C@@H](Cc2cc(F)c(F)c(F)c2)C(=O)N(C)[C@@H](Cc2ccccc2)C(=O)N1C` [Example 9353] ({CH2CO}-[Phe(3,4,5-F3)][NMeF][NMeNle][d(cisHyp)]DV[NMeF]Q[d(cisHyp)]WYKCG-NH2; thioether N-13), for which the IC50 is 1 to 9.9 nM.
